The text below walks through data of publication PMC12621189, “Optimization of Selective and CNS Penetrant Alkyne-Based TREK Inhibitors: The Discovery and Characterization of ONO-9517601 (VU6022856) and ONO-7927846 (VU6024391)” (Journal of Medicinal Chemistry, 2025).

The nature of series [1]: Liver microsome intrinsic clearance, human. To be noted: for Predicted CLhep human: from microsomal CLint; for CLint scaled at 1 µM: pH 7.4, human liver microsomes, predicted intrinsic clearance, read-out: LMS CLINT human. It is filed as in vitro ADME. In short, it runs like this:
(§1)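 Incubation in 100 mM potassium phosphate pH 7.4 with 3 mM MgCl2 at 37 °C, started with 1 mM NADPH after 5 min preincubation; sampled 0–45 min, quenched in acetonitrile, LC/MS/MS. Half-life from ln % remaining vs time; CLint scaled with 20 (human) or 45 (rat) factors, CLhep using Qh 21 (human) or 70 (rat) mL/min/kg.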

Series [2] is described as follows: Rat in vivo PK (plasma clearance) in SAR tables. To be noted: read-out: Rat CLp.
The next series concerns the target T1, mouse TREK-1 (mTREK-1) (Mus musculus, UniProt P97438).
T1 construct: expressed in transfected cells; host or cells: CHO-K1 (transient)
T1 sequence (P97438 1-426): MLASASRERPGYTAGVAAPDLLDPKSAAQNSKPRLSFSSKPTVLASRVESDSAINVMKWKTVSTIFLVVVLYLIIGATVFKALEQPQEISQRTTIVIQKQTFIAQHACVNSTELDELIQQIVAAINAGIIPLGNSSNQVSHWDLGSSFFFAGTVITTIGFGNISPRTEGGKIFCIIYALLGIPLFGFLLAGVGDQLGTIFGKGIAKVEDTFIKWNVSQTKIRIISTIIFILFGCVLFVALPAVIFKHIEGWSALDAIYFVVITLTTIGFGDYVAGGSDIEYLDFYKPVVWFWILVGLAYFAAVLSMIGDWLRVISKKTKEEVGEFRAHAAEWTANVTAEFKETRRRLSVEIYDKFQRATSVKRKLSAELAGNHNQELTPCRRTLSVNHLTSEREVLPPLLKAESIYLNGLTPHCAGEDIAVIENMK
The series can be described thus: mTREK-1 manual patch clamp assay. It is filed as cell-based. To be noted: mouse TREK-1, manual patch clamp; read-out: TREK-1 IC50 (mouse, MPC). The protocol:
hTREK-1 and mTREK-1 patch clamp assay
CHO-K1 cells stably expressing hTREK-1 or CHO-K1 cells transiently expressing mouse TREK-1 (mTREK-1) were plated on glass coverslips, and voltage clamped in the whole-cell configuration of the patch clamp technique. Cells were voltage clamped at a holding potential of - 80 mV and the stepped to 0 mV for 500 msec. The voltage was subsequently ramped from -120mV to +80 mV over a 500 msec duration. This step-ramp protocol was repeated every 10 sec. The bathing solution contained the following: 135 mM NaCl, 5 mM KCl, 2 mM CaCl2, 1 mM MgCl2, 5 mM D-Glucose, 10 mM HEPES, 10 mM sucrose (adjusted to pH 7.4 with NaOH, 300 mosmol/kg H2O). The pipette solution contained the following: 135 mM KCl, 2 mM MgCl2, 1 mM EGTA, 10 mM HEPES, 2 mM Na2ATP (adjusted to pH 7.35 with KOH, 285 mosmol/kg H2O). Test […]
compounds were dissolved into the bathing solution. The effects of test compound on the currents were calculated at 0 mV using the following equations:
% inhibition = (1-post current/pre current) x 100
% inhibition vs compound concentrations were plotted in GraphPad Prism and calculated IC50. […]
In general terms: Patch clamp records ionic current or voltage across a cell membrane.

The nature of series [3]: Liver microsome intrinsic clearance, rat. It is filed as in vitro ADME. The following applies: for CLint scaled at 1 µM: pH 7.4, rat liver microsomes, predicted intrinsic clearance, read-out: LMS CLINT rat; for Predicted CLhep rat: from microsomal CLint. In short, it runs like this: as §1
A short description of series [4]: Liver microsome intrinsic clearance, mouse. The series is classed as in vitro ADME. To be noted: mouse liver microsomes, predicted intrinsic clearance, read-out: LMS CLINT mouse.
Series [5] can be described thus: Plasma protein binding, rat. It is filed as in vitro ADME. The following applies: bound; for fraction unbound at 6 h, 5 µM: rat, plasma, pH 7.4, rat plasma, read-out: PPB rat (converted). As to the method:
Plasma protein binding and Brain homogenate binding: Determination of fraction unbound (f u) in plasma was conducted in vitro via equilibrium dialysis using HTDialysis (HTD) membrane plates. The top half of the plate was filled with 100 uL of Dubelco’s Phosphate Buffered Saline, pH 7.4 (DPBS). Compounds were diluted into plasma from each species (5 µM final concentration), which was aliquoted in triplicate to the ‘bottom half’ of the prepared HTD plate wells. The HTD plate was sealed and incubated for 6 hours at 37 °C. Following incubation, each well (both top and bottom halves) were transferred (20 µL) to the corresponding wells of a 96-shallow-well (V-bottom) plate. The daughter plates were then matrix-matched (DPBS side wells received equal volume of plasma, and plasma side wells received equal volume of DPBS), and extraction solution (120 µL; acetonitrile containing 50 nM carbamazepine as IS) was added to all wells of both daughter plates to precipitate protein and extract test article. The plates were then sealed and centrifuged (3500 rcf) for 10 minutes at ambient temperature. Supernatant (60 µL) from each well of the daughter plates was then transferred to the corresponding wells of new daughter plates (96-shallow-well, V bottom) containing water (Milli-Q, 60 µL/well), and the plates were sealed in preparation for LC-MS/MS analysis (see LC-MS/MS analysis method below).
The unbound fraction (f u) was calculated following the equation below, and mean values for each species were calculated from 3 replicates. […]
Fraction unbound for both plasma and brain samples was determined using Equation 4.
Equation 4 Determination of fraction unbound in plasma. […]

Molecules are shown by their SMILES.

By IC50 is commonly meant the point on the concentration scale where inhibition reaches its midpoint. Regarding `CC(=O)N1CCC(n2ncc(Cl)c2C(=O)Nc2ncc(C#Cc3ccccc3)cc2C)CC1` [Compound 10, 1-(1-Acetylpiperidin-4-yl)-4-chloro-N-(3-methyl-5-(phenylethynyl)pyridin-2-yl)-1H-pyrazole-5-carboxamide], in series [1], the “Predicted CLhep human” value was 4.9 mL/min/kg and the CLint scaled at 1 µM is 6 mL/min/kg. The clearance in series [2] came out at 27.7 mL/min/kg. On mouse TREK-1 (mTREK-1), the IC50 came out at 67 nM. In series [3], the CLint scaled at 1 µM was 62 mL/min/kg and the “Predicted CLhep rat” value is listed as 32.9 mL/min/kg. Further, in series [4], the CLint scaled is 8 mL/min/kg. Further, in series [5], the fraction unbound at 6 h, 5 µM is 0.013.

Regarding `Cc1cc(C#Cc2ccccc2)cnc1NC(=O)c1c(Cl)cnn1[C@H]1CCOC1` [Compound 15a, (S)-4-Chloro-N-(3-methyl-5-(phenylethynyl)pyridin-2-yl)-1-(tetrahydrofuran-3-yl)-1H-pyrazole-5-carboxamide], the CLint scaled at 1 µM in series [1] is 4 mL/min/kg; in series [3], 49 mL/min/kg. For the same compound, the clearance in series [2] turned out to be 8.9 mL/min/kg. Also, the PPB rat in series [5] (rat plasma) amounted to 98.1%. Also, the fraction unbound at 6 h, 5 µM in series [5] is around 0.02.

Turning to `Cc1cc(C#Cc2ccccc2)cnc1NC(=O)c1cc(OC[C@@H]2COCCO2)ccc1Cl` [Compound 7, (S)-5-((1,4-Dioxan-2-yl)methoxy)-2-chloro-N-(3-methyl-5-(phenylethynyl)pyridin-2-yl)benzamide], the CLint scaled at 1 µM is 57 mL/min/kg in series [1] and 88 mL/min/kg in series [4] (pH 7.4). For the same compound, in series [2], the clearance worked out at 9.43 mL/min/kg. The IC50 on mouse TREK-1 (mTREK-1) worked out at 170 nM.

Take `CC(=O)N1CC[C@@H](n2ncc(Cl)c2C(=O)Nc2ncc(C#Cc3ccc(F)cc3)cc2C)[C@H](F)C1` [Compound 11, 1-((3R,4R)-1-Acetyl-3-fluoropiperidin-4-yl)-4-chloro-N-(5-((4-fluorophenyl)ethynyl)-3-methylpyridin-2-yl)-1H-pyrazole-5-carboxamide]: in series [1], the “Predicted CLhep human” value is 7.0 mL/min/kg and the CLint scaled at 1 µM is 10 mL/min/kg. Besides, the half-maximal inhibitory concentration (IC50) at mouse TREK-1 (mTREK-1) is 760 nM. For the same compound, in series [3], the CLint scaled at 1 µM is 40 mL/min/kg and the “Predicted CLhep rat” value is on record as 25.4 mL/min/kg. Besides, the CLint scaled in series [4] is 134 mL/min/kg. The fraction unbound at 6 h, 5 µM in series [5] is 0.083.
